# Tested on: Balb/c mice
# Test: Bronchodilatory effect of inhaled quaternary ammonium salts; methacholine-induced bronchoconstriction (Penh, whole body plethysmography)
# Assay type: in vivo
# Settings: for inhibition of the bronchoconstriction to methacholine: female BALB/c mice, 5 min inhalation of 1.29 mg/ml aerosol, 80 mg/ml methacholine
# Experimental: Female BALB/c mice, weight range 19-22 g, were obtained from Charles River Laboratories (Kingston, N.C.). They received food and water ad libitum. All procedures in these studies were in compliance with the Animal Welfare Act Regulation, 9CFP. Parts 1 and 2, Publication (NIH) 85-23, 1985.
# Compounds for aerosol administration were prepared in sterile Dulbecco's Phosphate Buffered Saline. Mice were placed in a carousel-style, nose only, exposure chamber and allowed to inhale aerosols for five minutes, using an ICN SPAG-2 nebulizer. This nebulizer generates a mean aerosol particle size of 1.3 microns at a rate of approximately 0.25 ml/minute.
# Ten minutes and 36 hours later, the mice were moved to whole body plethysmograph chambers. Bronchoconstriction was induced in mice by administration of an 80 mg/ml methacholine (MC) aerosol into the plethysmograph chambers for 5 minutes. The mice were allowed to inhale an aerosol containing 80 mg/ml methacholine following inhalation treatment with DPBS vehicle (Dulbecco's Phosphate Buffered Saline), or 80 mg/ml methacholine following inhalation treatment with 1.29 mg/ml of (3S)-3-(2-amino-2-oxo-1,1-diphenylethyl)-1-[2-(2,3-dihydro-1-benzofuran-5-yl)ethyl]-1-methylpyrrolidinium iodide. The average enhanced pause (Penh, lung resistance), corresponding to airflow resistance, was determined and statistically analyzed using Kruskal-Wallis one way ANOVA. In order to determine the baseline, saline aerosol (without methacholine) was also separately administered to the mice.
smiles,measurement,setting,value
"C[N+]1(CCc2ccc3c(c2)CCO3)CC[C@@H](C(C(N)=O)(c2ccccc2)c2ccccc2)C1.[I-] (stereo partly drawn) [Example I, (3S)-3-(2-amino-2-oxo-1,1-diphenylethyl)-1-[2-(2,3-dihydro-1-benzofuran-5-yl)ethyl]-1-methylpyrrolidinium iodide]",inhibition of the bronchoconstriction to methacholine,measured 10 minutes after dosing (FIG. 1),100%
same,inhibition of the bronchoconstriction to methacholine,measured 36 hours after dosing (FIG. 2),61%
same,efficacy (lung resistance) compared to tertiary amine form,"varying concentrations, quaternary compound vs its tertiary amine form (FIGS. 3A-3C)",extended activity

# From US6951950B2, “Quaternary ammonium compounds” (Pharmacia & Upjohn Co, priority 2002, dated 2005)
